In US9957264B2 (Merck Sharp & Dohme Corp., priority 2013, dated 2018):

Assays:
[1] = target: JAK2 (recombinant purified GST-tagged catalytic domain) (Homo sapiens (Human), UniProt O60674); experiment: Jak Biochemical HTRF Assay (JAK2); conditions: [ATP] 8.5 μM
[2] = target: JAK1 (recombinant purified GST-tagged catalytic domain) (Homo sapiens (Human), UniProt P23458); experiment: Jak Biochemical HTRF Assay (JAK1); conditions: [ATP] 31.8 μM
Procedure, shortened: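 Compounds in DMSO were pre-equilibrated with enzyme and biotinylated peptide, then ATP was added and the reaction proceeded 120 min at room temperature. EDTA-based stop buffer with detection reagents was added, and after 60 min the time-resolved FRET ratio was read. IC50s came from 4-parameter dose–response fits.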

Sequence of JAK2 (recombinant purified GST-tagged catalytic domain) (O60674 849-1124): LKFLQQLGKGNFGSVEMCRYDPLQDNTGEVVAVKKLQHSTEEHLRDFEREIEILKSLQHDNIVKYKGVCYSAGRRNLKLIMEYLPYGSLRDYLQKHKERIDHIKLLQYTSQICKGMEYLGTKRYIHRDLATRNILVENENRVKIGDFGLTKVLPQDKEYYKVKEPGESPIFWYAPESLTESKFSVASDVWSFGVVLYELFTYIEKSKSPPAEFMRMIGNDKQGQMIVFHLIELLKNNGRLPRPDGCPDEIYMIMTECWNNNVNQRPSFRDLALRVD
Sequence of JAK1 (recombinant purified GST-tagged catalytic domain) (P23458 875-1153): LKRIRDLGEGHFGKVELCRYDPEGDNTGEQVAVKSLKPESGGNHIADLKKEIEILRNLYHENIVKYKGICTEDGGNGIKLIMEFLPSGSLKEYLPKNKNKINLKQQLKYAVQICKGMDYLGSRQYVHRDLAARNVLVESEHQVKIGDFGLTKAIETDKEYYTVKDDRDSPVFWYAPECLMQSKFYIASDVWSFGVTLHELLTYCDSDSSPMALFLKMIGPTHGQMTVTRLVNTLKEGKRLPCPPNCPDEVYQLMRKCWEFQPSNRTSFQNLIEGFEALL

Structure (SMILES) | IC50 [1] [nM] | IC50 [2] [nM]
CN(C)S(=O)(=O)c1ccc(Nc2nn(C3(CC#N)CCN(C(=O)CN4CCCC4=O)CC3)c3cc[nH]c(=O)c23)cc1 [Example 9-19, 4-[(1-{4-(cyanomethyl)-1-[(2-oxopyrrolidin-1-yl)acetyl]piperidin-4-yl}-4-oxo-4,5-dihydro-1H-pyrazolo[4,3-c]pyridin-3-yl)amino]-N,N-dimethylbenzenesulfonamide] | 3.14 | 0.26
CC(C)(O)[C@@H]1CC[C@@](CC#N)(n2nc(Nc3ccc(Cl)cc3)c3c(=O)[nH]ccc32)CO1 [Example 24, 2-((3S,6S)-3-(3-((4-chlorophenyl)amino)-4-oxo-4,5-dihydro-1H-pyrazolo[4,3-c]pyridin-1-yl)-6-(2-hydroxypropan-2-yl)tetrahydro-2H-pyran-3-yl)acetonitrile] | 1.13 | 0.34
N#CC[C@@]1(n2nc(Nc3ccc([C@@]4(C(F)(F)F)CCCCN4)cc3)c3c(=O)[nH]ccc32)CCOC[C@@H]1F (single isomer, unassigned) [Example 5-266, 2-((3R,4R or 3S,4S)-3-fluoro-4-(4-oxo-3-((4-((R or S)-2-(trifluoromethyl)piperidin-2-yl)phenyl)amino)-4,5-dihydro-1H-pyrazolo[4,3-c]pyridin-1-yl)tetrahydro-2H-pyran-4-yl)acetonitrile] | 0.04 | 0.05
CO[C@@H](c1ccc(Nc2nn(C3(CC#N)CCN(C(=O)OC(C)(C)C)CC3)c3cc[nH]c(=O)c23)cc1)C(F)(F)F (single isomer, unassigned) [Example 21-10, tert-butyl 4-(cyanomethyl)-4-[4-oxo-3-({4-[(1S or 1R)-2,2,2-trifluoro-1-methoxyethyl]phenyl}amino)-4,5-dihydro-1H-pyrazolo[4,3-c]pyridin-1-yl]piperidine-1-carboxylate] | 1.95 | 0.97
CC(C)(C)OC(=O)N1CCC(CC#N)(n2nc(Nc3ccc(S(=O)(=O)NCC4CC4)c(F)c3)c3c(=O)[nH]ccc32)CC1 [Example 5-296, tert-butyl 4-(cyanomethyl)-4-(3-((4-(N-(cyclopropylmethyl)sulfamoyl)-3-fluorophenyl)amino)-4-oxo-4,5-dihydro-1H-pyrazolo[4,3-c]pyridin-1-yl)piperidine-1-carboxylate] | 0.91 | 0.65
N#CC[C@]1(n2nc(Nc3ccnc(F)c3)c3c(=O)[nH]ccc32)CCCC[C@H]1F [Example 5-152, 2-((1R,2R)-2-fluoro-1-(3-((2-fluoropyridin-4-yl)amino)-4-oxo-4,5-dihydro-1H-pyrazolo[4,3-c]pyridin-1-yl)cyclohexyl)acetonitrile] | 0.68 | 0.09
CN1Cc2cc(Nc3nn([C@]4(CC#N)CC[C@H](N5CC(F)C5)CC4)c4cc[nH]c(=O)c34)ccc2S1(=O)=O [Example 18-31] | 16.9 | 1.81
CC(C)(C)OC(=O)N1CC(CC#N)(n2nc(Nc3ccnc(C(F)(F)F)c3)c3c(=O)[nH]ccc32)C1 [Example 4-1, tert-butyl 3-(cyanomethyl)-3-(4-oxo-3-((2-(trifluoromethyl)pyridin-4-yl)amino)-4,5-dihydro-1H-pyrazolo[43-c]pyridin-1-yl)azetidine-1-carboxylate] | 218 | 32.9
CCN(C)S(=O)(=O)c1ccc(Nc2nn([C@]3(CC#N)CC[C@@H](C(=O)OC(C)(C)C)OC3)c3cc[nH]c(=O)c23)cc1 [Example 5-92, (2S,5S)-tert-butyl 5-(cyanomethyl)-5-(3-((4-(N-ethyl-N-methylsulfamoyl)phenyl)amino)-4-oxo-4,5-dihydro-1H-pyrazolo[4,3-c]pyridin-1-yl)tetrahydro-2H-pyran-2-carboxylate] | 0.13 | 0.09
N#CC[C@@]1(n2nc(Nc3ccc(C(N)C(F)(F)F)cc3)c3c(=O)[nH]ccc32)CCCOC1 (single isomer, unassigned) [Example 5-188, {(3S)-3-[3-({4-[(1S or 1R)-1-amino-2,2,2-trifluoroethyl]phenyl}amino)-4-oxo-4,5-dihydro-1H-pyrazolo[4,3-c]pyridin-1-yl]tetrahydro-2H-pyran-3-yl}acetonitrile] | 0.34 | 0.11
N#CCC1(n2nc(Nc3ccc(C(F)(F)F)cc3)c3c(=O)[nH]ccc32)CCC(N2CC(F)C2)CC1 (single isomer, unassigned) [Example 18-2, 2-(4-(3-fluoroazetidin-1-yl)-1-(4-oxo-3-((4-(trifluoromethyl)phenyl)amino)-4,5-dihydro-1H-pyrazolo[4,3-c]pyridin-1-yl)cyclohexyl)acetonitrile] | 64 | 6.8
CN(C)S(=O)(=O)c1ccc(Nc2nn(C3(CC#N)CCN(Cc4ccc(N5CCCC5=O)cc4)CC3)c3cc[nH]c(=O)c23)cc1 [Example 8-14, 4-[(1-{4-(cyanomethyl)-1-[4-(2-oxopyrrolidin-1-yl)benzyl]piperidin-4-yl}-4-oxo-4,5-dihydro-1H-pyrazolo[4,3-c]pyridin-3-yl)amino]-N,N-dimethylbenzenesulfonamide] | 2.84 | 0.73

The remaining molecules from weak to strong by IC50 [1], led by results:

IC50 [1] [nM] | IC50 [2] [nM] | Structure (SMILES)
348 | 23 | N#CC[C@]1(n2nc(Nc3cc(F)c4nccc(Cl)c4c3)c3c(=O)[nH]ccc32)CCOC1 (single isomer, unassigned) [Example 5-244, [(3S or 3R)-3-{3-[(4-chloro-8-fluoroquinolin-6-yl)amino]-4-oxo-4,5-dihydro-1H-pyrazolo[4,3-c]pyridin-1-yl}tetrahydrofuran-3-yl]acetonitrile]
60.3 | 48.2 | CCNc1nn(C2(CC#N)CCN(C(=O)OC(C)(C)C)CC2)c2cc[nH]c(=O)c12 [Example 2-1, tert-butyl 4-(cyanomethyl)-4-[3-(ethylamino)-4-oxo-4,5-dihydro-1H-pyrazolo[4,3-c]pyridin-1-yl]piperidine-1-carboxylate]
9.07 | 2.23 | N#CC[C@]1(n2nc(Nc3ccc(S(=O)(=O)C(F)F)cc3)c3c(=O)[nH]ccc32)CC[C@@H](N2CC(F)C2)CC1 [Example 18-27, Cis 2-(1-(3-((4-((difluoromethyl)sulfonyl)phenyl)amino)-4-oxo-4,5-dihydro-1H-pyrazolo[4,3-c]pyridin-1-yl)-4-(3-fluoroazetidin-1-yl)cyclohexyl)acetonitrile]
8.38 | 0.81 | CN(C)S(=O)(=O)c1ccc(Nc2nn(C3(CC#N)CCN(C(=O)c4ccccc4Cl)CC3)c3cc[nH]c(=O)c23)cc1 [Example 9-15, 4-[(1-{1-[(2-chlorophenyl)carbonyl]-4-(cyanomethyl)piperidin-4-yl}-4-oxo-4,5-dihydro-1H-pyrazolo[4,3-c]pyridin-3-yl)amino]-N,N-dimethylbenzenesulfonamide]
3.82 | 1.15 | N#CCC1(n2nc(Nc3ccc([C@H](O)C(F)(F)F)cc3)c3c(=O)[nH]ccc32)CCN(c2cc(C(F)(F)F)ccn2)CC1 (single isomer, unassigned) [Example 16-3, (R or S)-2-(4-(4-Oxo-3-(4-(2,2,2-trifluoro-1-hydroxyethyl)phenylamino)-4,5-dihydropyrazolo[4,3-c]pyridin-1-yl)-1-(4-(trifluoromethyl)pyridin-2-yl)piperidin-4-yl)acetonitrile]
3.17 | 2.08 | Cc1cc(Nc2nn([C@@]3(CC#N)CCOC[C@H]3F)c3cc[nH]c(=O)c23)ccc1C(=O)N1CCOCC1 (single isomer, unassigned) [Example 5-257, 2-((3S,4S or 3R,4R)-3-fluoro-4-(3-(3-methyl-4-(morpholine-4-carbonyl)phenylamino)-4-oxo-4,5-dihydropyrazolo[4,3-c]pyridin-1-yl)-tetrahydro-2H-pyran-4-yl)acetonitrile]
1.07 | 0.7 | CN(C(C)(C)C)S(=O)(=O)c1ccc(Nc2nn(C3(CC#N)CCCC3)c3cc[nH]c(=O)c23)cc1 [Example 5-134, N-(tert-butyl)-4-((1-(1-(cyanomethyl)cyclopentyl)-4-oxo-4,5-dihydro-1H-pyrazolo[4,3-c]pyridin-3-yl)amino)-N-methylbenzene sulfonamide]
0.74 | 0.32 | CC(C)(C)OC(=O)C(C)(C)N1Cc2cc(Nc3nn(C4(CC#N)CCCC4)c4cc[nH]c(=O)c34)ccc2C1=O [Example 5-140, tert-butyl 2-(5-((1-(1-(cyanomethyl)cyclopentyl)-4-oxo-4,5-dihydro-1H-pyrazolo[4,3-c]pyridin-3-yl)amino)-1-oxoisoindolin-2-yl)-2-methylpropanoate]
0.64 | 0.71 | CC(C)(C)OC(=O)N1CCC(CC#N)(n2nc(Nc3ccc([C@]4(C(F)(F)F)CCCCN4)cc3)c3c(=O)[nH]ccc32)CC1 (single isomer, unassigned) [Example 21-16, (S or R)-tert-butyl 4-(cyanomethyl)-4-(4-oxo-3-(4-(2-(trifluoromethyl)piperidin-2-yl)phenylamino)-4,5-dihydropyrazolo[4,3-c]pyridin-1-yl)piperidine-1-carboxylate]
0.37 | 0.22 | CC(C)(C)OC(=O)N1CCC(CC#N)(n2nc(Nc3ccc(S(=O)(=O)N4CCOCC4)cc3)c3c(=O)[nH]ccc32)CC1 [Example 5-294, tert-butyl 4-(cyanomethyl)-4-(3-((4-(morpholinosulfonyl)phenyl)amino)-4-oxo-4,5-dihydro-1H-pyrazolo[4,3-c]pyridin-1-yl)piperidine-1-carboxylate]
0.12 | 0.06 | CN(C)S(=O)(=O)c1ccc(Nc2nn(C3(CC#N)CCN(S(=O)(=O)C4CC4)CC3)c3cc[nH]c(=O)c23)cc1 [Example 14-2, 4-((1-(4-(cyanomethyl)-1-(cyclopropylsulfonyl)piperidin-4-yl)-4-oxo-4,5-dihydro-1H-pyrazolo[4,3-c]pyridin-3-yl)amino)-N,N-dimethylbenzenesulfonamide]
